These results are taken from patent US8202866B2, “Ortho-aminoanilides for the treatment of cancer” (Hoffmann-La Roche Inc., priority 2008, dated 2012).

Test [1] concerns p21 promoter-luciferase construct in HeLa cells. The test can be described thus: p21 reporter gene induction assay, HeLa cells transfected with p21 promoter-luciferase construct. The test is classed as cell-based. To be noted: compound at 3 micromolar; 15 hours incubation; relative to SNDX-275 (=100%). As for the experimental part: The novel compounds of the present invention were tested for their ability to induce p21 gene expression using a reporter gene assay involving HeLa cells transfected with a p21 promoter-luciferase construct. The p21 promoter contained the Sp1/Sp3 binding site for HDAC but not the upstream p53 binding site. Briefly, the day before transfection, HeLa cells were seeded at 11,000 cells/well in a 96-well culture plate and incubated at 37 degrees Celsius in 5% CO2 overnight. For transfection, the medium was removed and replaced with 100 microliters/well transfection media previously prepared as follows: 5 microliters serum-free DMEM, 0.15 microliters Fugene 6 reagent, 40 ng p21-luc, 10 ng GFP were mixed gently and incubated at room temperature for 30 minutes; then 98 microliters DMEM (with 10% FBS, 1% penicillin and streptomycin) was added to the DNA:Fugene 6 reagent complex and mixed gently. After incubating the cells for 24 hours at 37 degrees Celsius in 5% CO2, fresh media and test compounds were added to the wells and the cells further incubated for 15 hours at 37 degrees Celsius in 5% CO2. Cells were lysed by adding 80 microliters/well of a cell culture lysis reagent (Promega). 50 microliters of each lysate was taken for GFP detection using an excitation wavelength of 486 nm and detection at 527 nm. 100 microliters Luciferase assay reagent (Promega) was then added to every 20 microliters cell lysate for luminometer detection. […] Induction activity for specific representative compounds can be found in Table 7.

The subject of test [2] is SMMC-7721 liver cancer cells. The test can be described thus: Antiproliferative activity, in vitro growth inhibition assay (MTS/WST), SMMC-7721. To be noted: Homo sapiens, 72 hours; for IC90: concentration required for 90% growth inhibition, read-out: GI90 (micromolar) SMMC-7721; for GI50: read-out: GI50 (micromolar) SMMC-7721. The test is classed as cell-based. The procedure:
The novel compounds of the present invention were tested for their ability to inhibit growth of various cancer cell lines using in vitro growth inhibition assays described below.
Cells were seeded in 96-well culture plates (200 microliters/well at different seeding concentrations depending on cell type) and incubated overnight at 37 degrees Celsius in 5% CO2. After adding compound dilutions to the cells (DMSO concentration kept below 0.5%), the cells were incubated at 37 degrees Celsius in 5% CO2 for 72 hours. The effects on proliferation were determined by addition of MTS reagent (Promega) according to the manufacturer's instruction, followed by incubation for 2 hours at 37 degrees Celsius in 5% CO2, and finally recording the absorbance at 490 nm using an ELISA plate reader.
Similar to MTS assay except that the developer is the CCK-8 reagent (Dojindo) and the plate reader is set to 450 nm absorbance.
GI50 and GI90 values against SMMC-7721 liver cancer cells for specific representative compounds can be found in Table 7.

Molecules are shown by their SMILES.

Regarding `Nc1ccccc1NC(=O)/C=C/c1ccc(C(CCN2C[C@@H]3C[C@H]2CO3)C(=O)Nc2ccc(Br)cc2)cc1` (stereo partly drawn) [Example 6, 2-{4-[(E)-2-(2-Amino-phenylcarbamoyl)-vinyl]-phenyl}-N-(4-bromo-phenyl)-4-(1S,4S)-2-oxa-5-aza-bicyclo[2.2.1]hept-5-yl-butyramide], the “p21 (RP3): relative induction potency compared with SNDX-275” value (“p21 (RP3): relative induction potency” for short) in test [1] was determined as 212%. Besides, in test [2], the IC90 was found to be 2.7 µM and the GI50 turned out to be 0.8 µM.

In the case of `Nc1ccccc1NC(=O)/C=C/c1ccc(C(CCN2CCOCC2)C(=O)Nc2ccc(Br)cc2)cc1` (stereo not drawn) [Example 6-2, 2-{4-[(E)-2-(2-Amino-phenylcarbamoyl)-vinyl]-phenyl}-N-(4-bromo-phenyl)-4-morpholin-4-yl-butyramide], the “p21 (RP3): relative induction potency” value in test [1] was 233%. Also, in test [2], the IC90 stood at 3.1 µM and the GI50 was 1 µM.

As to `Nc1ccccc1NC(=O)/C=C/c1ccc(C(CCCN2CCOCC2)C(=O)Nc2ccc(Br)cc2)cc1` (stereo not drawn) [Example 9, 2-{4-[(E)-2-(2-Amino-phenylcarbamoyl)-vinyl]phenyl}-5-morpholin-4-yl-pentanoic acid (4-bromo-phenyl)-amide], the “p21 (RP3): relative induction potency” value in test [1] came out at 253%. In test [2], the IC90 was 2.9 µM and the GI50 came out at 1.3 µM.

For the compound `Nc1ccccc1NC(=O)/C=C/c1ccc(C(CCCN2C[C@@H]3C[C@H]2CO3)C(=O)Nc2ccc(Br)cc2)cc1` (stereo partly drawn) [Example 9-2, 2-{4-[(E)-2-(2-Amino-phenylcarbamoyl)-vinyl]-phenyl}-5-(1S,4S)-2-oxa-5-aza-bicyclo[2.2.1]hept-5-yl-pentanoic acid (4-bromo-phenyl)-amide], the “p21 (RP3): relative induction potency” value in test [1] turned out to be 74%. Moreover, in test [2], the IC90 turned out to be 1.5 µM and the GI50 came out at 0.7 µM.

For the compound `Nc1ccccc1NC(=O)/C=C/c1ccc(C(CCCN2CCCCC2)C(=O)Nc2ccc(Br)cc2)cc1` (stereo not drawn) [Example 9-3, 2-{4-[(E)-2-(2-Amino-phenylcarbamoyl)-vinyl]-phenyl}-5-piperidin-1-yl-pentanoic acid (4-bromo-phenyl)-amide], the “p21 (RP3): relative induction potency” value in test [1] stood at 305%. In test [2], the IC90 was determined as 2.1 µM and the concentration for 50% growth inhibition (GI50) worked out at 0.8 µM.

As for `CC(C)c1ccc(NC(=O)C(CCCN2C[C@@H]3C[C@H]2CO3)c2ccc(/C=C/C(=O)Nc3ccccc3N)cc2)cc1` (stereo partly drawn) [Example 9-4, 2-{4-[(E)-2-(2-Amino-phenylcarbamoyl)-vinyl]-phenyl}-5-(1S,4S)-2-oxa-5-aza-bicyclo[2.2.1]hept-5-yl-pentanoic acid (4-isopropyl-phenyl)-amide], in test [1], the “p21 (RP3): relative induction potency” value is recorded as 155%. In test [2], the IC90 was 4.9 µM and the GI50 came out at 1.4 µM.

Take `Nc1ccccc1NC(=O)/C=C/c1ccc(C(CCCN2CCCC(O)C2)C(=O)Nc2ccc(Br)cc2)cc1` (stereo not drawn) [Example 9-5, 2-{4-[(E)-2-(2-Amino-phenylcarbamoyl)-vinyl]-phenyl}-5-(3-hydroxy-piperidin-1-yl)-pentanoic acid (4-bromo-phenyl)-amide]: in test [1], the “p21 (RP3): relative induction potency” value came to 127%. In test [2], the IC90 was 3.2 µM and the GI50 amounted to 1.1 µM.

As for `CN1CCCC1CCC(C(=O)Nc1ccc(Br)cc1)c1ccc(/C=C/C(=O)Nc2ccccc2N)cc1` (stereo not drawn) [Example 25, 2-{4-[(E)-2-(2-Amino-phenylcarbamoyl)-vinyl]-phenyl}-N-(4-bromo-phenyl)-4-(1-methyl-pyrrolidin-2-yl)-butyramide], the “p21 (RP3): relative induction potency” value in test [1] was 199%. In test [2], the IC90 came to 2.5 µM and the GI50 amounted to 0.8 µM.

Regarding `CCN(CC)C1CCN(CC(C(=O)Nc2ccc(Cl)cc2)c2ccc(/C=C/C(=O)Nc3ccccc3N)cc2)C1` (stereo not drawn) [Example 31, (E)-N-(2-Amino-phenyl)-3-{4-[1-(4-chloro-phenylcarbamoyl)-2-(3-diethylamino-pyrrolidin-1-yl)-ethyl]phenyl}-acrylamide], the “p21 (RP3): relative induction potency” value in test [1] is 243%. In addition, in test [2], the IC90 came out at 3.3 µM and the GI50 is 0.9 µM.

As for `Nc1ccccc1NC(=O)c1ccc(CNC(=O)OCc2cccnc2)cc1` [SNDX-275, reference compound], the “p21 (RP3): relative induction potency” value in test [1] is on record as 100%. In test [2], the IC90 came out at 10.5 µM and the GI50 worked out at 3.5 µM.

What is called GI50 is the concentration giving 50% growth inhibition.
